Data reported in paper PMC4122130 (Journal of neuroscience research, 2012).

Biological target: α7 nAChR (Homo sapiens, UniProt P36544)
Experiment: whole-cell patch clamp, inhibition of […] ACh-evoked currents by […] 4R
Format: cell-based
Settings: shsy5y cells

Chain of α7 nAChR (P36544 23-502): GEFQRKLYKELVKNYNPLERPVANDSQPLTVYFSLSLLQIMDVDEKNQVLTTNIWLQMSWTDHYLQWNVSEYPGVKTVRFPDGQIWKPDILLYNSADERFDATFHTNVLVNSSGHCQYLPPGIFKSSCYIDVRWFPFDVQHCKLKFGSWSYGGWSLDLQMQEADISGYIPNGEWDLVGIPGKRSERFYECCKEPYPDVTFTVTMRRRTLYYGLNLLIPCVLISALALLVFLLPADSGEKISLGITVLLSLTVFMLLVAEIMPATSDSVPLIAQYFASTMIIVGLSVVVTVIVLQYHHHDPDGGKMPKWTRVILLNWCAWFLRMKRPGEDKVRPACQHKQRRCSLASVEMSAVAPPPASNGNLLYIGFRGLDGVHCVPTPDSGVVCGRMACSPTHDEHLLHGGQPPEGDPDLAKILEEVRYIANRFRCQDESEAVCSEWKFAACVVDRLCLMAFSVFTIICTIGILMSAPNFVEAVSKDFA

C/C1=C\[C@H](O)C[C@@](C)(O)/C=C/[C@H](C(C)C)CC/C(C)=C/CC1 [4R, (1S,2E,4R,6R,7E,11E)-cembra-2,7,11-triene-4,6-diol]
% inhibition at 25 μM: 82% ± 18% inhibition at 25 μM
